Laboratory results reported in patent US4948782A, “A method of promoting the growth of domestic animals with erythromycin derivative containing composition” (Kitasato Kenkyusho, priority 1987, dated 1990).
Like-named read-outs stand apart in the source and are kept apart here.

Assays:
cockerels of broilers = test: Survival rate and growing rate of cockerels of broilers fed the compound in rye-rations for 14 days; format: in vivo, cockerels of broilers (Habbard); conditions: for Gain (Ratio): control = 100.0; for Gain: mean
Protocol: The feeds prepared by adding 0, 1.0, 10.0 and 100.0 ppm of 8,9-anhydroerythromycin A 6,9-hemiketal propargyl chloride respectively to rye-rations, were given to 160 cockerels of broilers (Habbard) of day zero, as 10 cockerels/group×4 repeats/ section, and allowed to be taken freely and continuously for 14 days. The cockerels were positioned to be accommodated for each groups by the Latin square method in an electrically heated battery brooder (the inside thereof is heated at a temperature of 32° C.). The survival rate and the growing rate were measured at 7 and 14 days of age.
Experimental Example 2 was repeated except for changing the administration compound to ethyl-nor-8,9-anhydroerythromycin A 6,9-hemiketal. The result of measuring the survival rate and the growing rate in cockerals of broilers (Habbard) of day zero was shown in Table 8.

Clostridium perfringens = format: in vivo

CC[C@H]1OC(=O)[C@H](C)[C@@H](O[C@H]2C[C@@](C)(OC)[C@@H](O)[C@H](C)O2)[C@H](C)[C@@H](O[C@@H]2O[C@H](C)C[C@H](N(C)CC)[C@H]2O)[C@@]2(C)CC(C)=C(O2)[C@H](C)[C@@H](O)[C@]1(C)O [ethyl-nor-8,9-anhydroerythromycin A 6,9-hemiketal]
Survival rate (cockerels of broilers; 1.0 ppm in feed, 0-7 days): 97.5% | Gain (Ratio) (cockerels of broilers; 1.0 ppm in feed, 0-7 days): 103.1 | Gain (cockerels of broilers; 1.0 ppm in feed, 0-7 days): 85.7 g/cockerel | Survival rate (cockerels of broilers; 1.0 ppm in feed, 0-14 days): 97.5% | Gain (Ratio) (cockerels of broilers; 1.0 ppm in feed, 0-14 days): 106.8 | Gain (cockerels of broilers; 1.0 ppm in feed, 0-14 days): 263.3 g/cockerel | Survival rate (cockerels of broilers; 10.0 ppm in feed, 0-7 days): 97.5% | Gain (Ratio) (cockerels of broilers; 10.0 ppm in feed, 0-7 days): 98.3 | Gain (cockerels of broilers; 10.0 ppm in feed, 0-7 days): 81.7 g/cockerel | Survival rate (cockerels of broilers; 10.0 ppm in feed, 0-14 days): 95.0% | Gain (Ratio) (cockerels of broilers; 10.0 ppm in feed, 0-14 days): 102.6 | Gain (cockerels of broilers; 10.0 ppm in feed, 0-14 days): 253.1 g/cockerel | Survival rate (cockerels of broilers; 100.0 ppm in feed, 0-7 days): 100.0% | Gain (Ratio) (cockerels of broilers; 100.0 ppm in feed, 0-7 days): 104.3 | Gain (cockerels of broilers; 100.0 ppm in feed, 0-7 days): 86.7 g/cockerel | Survival rate (cockerels of broilers; 100.0 ppm in feed, 0-14 days): 100.0% | Gain (Ratio) (cockerels of broilers; 100.0 ppm in feed, 0-14 days): 105.4 | Gain (cockerels of broilers; 100.0 ppm in feed, 0-14 days): 259.8 g/cockerel | Number of Cl. perfringens (Clostridium perfringens; 1.0 ppm (section 2), day 0): 7.03 log CFU/g | Number of Cl. perfringens (Clostridium perfringens; 1.0 ppm (section 2), day 7): 7.20 log CFU/g | Number of Cl. perfringens (Clostridium perfringens; 10.0 ppm (section 3), day 0): 6.83 log CFU/g | Number of Cl. perfringens (Clostridium perfringens; 10.0 ppm (section 3), day 7): 7.54 log CFU/g | Number of Cl. perfringens (Clostridium perfringens; 100.0 ppm (section 4), day 0): 6.59 log CFU/g | Number of Cl. perfringens (Clostridium perfringens; 100.0 ppm (section 4), day 7): 7.17 log CFU/g
